Data from PubChem BioAssay AID2060513 (Molecular Pharmacology Branch, DTP, NCI, 2025).

System: 299254-011-R-J1-PDC complex spheroids viability
Assay: Anticancer human tumor 299254-011-R-J1-PDC patient-derived melanoma cell line growth inhibition [GQUAD]
Settings: for IC50: curve of first compound; for viability, T/C: stronger effect = lower value; active means viability on the fitted dose curve at most 10% of control; inactive means the rest
Description: DNA G-quadruplex Stabilizer Agents in Combinations in Complex Spheroids
A high-throughput screen of multi-cell type tumor spheroids was designed to identify active combinations of DNA G-quadruplex stabilizer agents and targeted small molecules. Complex spheroids include a stromal component modeled by human endothelial cells (HUVEC) and fibroblasts modeled by human mesenchymal stem cells (MSCs). The concentration ranges selected for each drug and investigational agent were based upon clinically achievable concentrations if the clinical Cmax of the agent was known.
Compounds. The drugs and investigational agents: pidnarulex (CX-5461; NSC782164), APTO-253 (NSC789042), BRACO-19 (NSC847499), peposertib (NSC802822), ceralasertib (NSC780249), elimusertib (NSC800525), camonsertib (NSC841442), AZD-1390 (NSC803789), olaparib (NSC753686), talazoparib (NSC767125), ART-558 (NSC835418), sotorasib (NSC818433), MRTX-1133 (NSC836407), SN-38 (NSC673596), topotecan (NSC609699), etoposide (NSC141540), doxorubicin (NSC123127), gemcitabine (NSC613327), 5-fluorouracil (NSC19893), paclitaxel (NSC125973), vemurafenib (NSC761431), panobinostat (NSC761190), R-306465 (JNJ-16241199; NSC773264), adavosertib (NSC754352), TP-3654 (NSC805149), carboplatin (NSC241240), KSQ-4279 (NSC840948), and staurosporine (NSC755774) were obtained from the National Cancer Institute (NCI) Developmental Therapeutics Program Chemical Repository (34). The FDA-approved anticancer drug set is available from the NCI Developmental Therapeutics Program. […] The stock solutions were prepared in dimethyl sulfoxide (DMSO, Sigma-Aldrich, St. Louis, MO, cat. D2650) at 800-fold the tested concentration and stored at -70 degrees C prior to their use. All drugs and investigational agents were tested over a range starting from a high concentration at or near the clinical Cmax and decreasing in half-log increments. If the clinical Cmax for an agent had not been determined, the highest concentration tested was 10 microM.
2.3 Cell Culture. All cells were maintained in an incubator at 37 degrees C and 5% CO2 with 95% humidity. The PDC lines were cultured according to standard operating procedures established by the NCI PDMR. All PDCs were thawed and cultured in Matrigel-coated flasks prepared with a working solution of 1X Ham's F-12 nutrient mix, without supplementation (Invitrogen, cat. 11765054), 100 U/mL penicillin-streptomycin (Invitrogen, cat. 15140122), and 2.5% Matrigel (Corning Inc., cat. 354248) for the first three passages. The 857933-349-R-J2-PDC line was cultured in 6C/Colon 1B media, which includes advanced DMEM/F-12 (Thermo Fisher Scientific, cat. 12634028), 10 mM HEPES (Thermo Fisher Scientific, cat. 15630080), 1X GlutaMAX supplement (Thermo Fisher Scientific, cat. 35050061), 0.1 mg/mL primocin (InvivoGen, cat. ant-pm-2), 10% defined fetal bovine serum, heat inactivated (HyClone Laboratories Inc., cat. SH30070.03HI), 50% L-WRN conditioned media (ATCC, cat. CRL-3276), 1.25 mM N-Acetyl-L-cysteine (Sigma-Aldrich, cat. A9165), 10 mM nicotinamide (Sigma-Aldrich, cat. N0636), 1X B-27 supplement (Thermo Fisher Scientific, cat. 17504044), 1X N-2 supplement (Thermo Fisher Scientific, cat. 17502048), 10 microM Y-27632 dihydrochloride (Tocris Bioscience, cat. 1254), and 50 ng/mL human EGF recombinant protein (Thermo Fisher Scientific, cat. PHG0311). The 485176-168-R4-J1-PDC line was cultured in Panc media, which includes all 6C/Colon 1B media components plus 100 ng/mL human FGF-10 (Thermo Fisher Scientific, cat. 100-26), 500 nM SB-431542 (Selleckchem, cat. S1067), and gastrin (Tocris, cat. 3006).
[…]

[1] = second compound 0.0316 µM, first compound 0.0316 µM
[2] = second compound 0.0316 µM, first compound 0.1 µM
[3] = second compound 0.0316 µM, first compound 0.316 µM
[4] = second compound 0.0316 µM, first compound 1 µM
[5] = second compound 0.0316 µM, first compound 3.16 µM
[6] = second compound 0.0316 µM, first compound 10 µM
[7] = second compound 0.1 µM, first compound 0.0316 µM
[8] = second compound 0.1 µM, first compound 0.1 µM
[9] = second compound 0.1 µM, first compound 0.316 µM
[10] = second compound 0.1 µM, first compound 1 µM
[11] = second compound 0.1 µM, first compound 3.16 µM
[12] = second compound 0.1 µM, first compound 10 µM
[13] = second compound 0.316 µM, first compound 0.0316 µM
[14] = second compound 0.316 µM, first compound 0.1 µM
[15] = second compound 0.316 µM, first compound 0.316 µM
[16] = second compound 0.316 µM, first compound 1 µM
[17] = second compound 0.316 µM, first compound 3.16 µM
[18] = second compound 0.316 µM, first compound 10 µM
[19] = second compound 1 µM, first compound 0.0316 µM
[20] = second compound 1 µM, first compound 0.1 µM
[21] = second compound 1 µM, first compound 0.316 µM
[22] = second compound 1 µM, first compound 1 µM
[23] = second compound 1 µM, first compound 3.16 µM
[24] = second compound 1 µM, first compound 10 µM
[25] = second compound 3.16 µM, first compound 0.0316 µM
[26] = second compound 3.16 µM, first compound 0.1 µM
[27] = second compound 3.16 µM, first compound 0.316 µM
[28] = second compound 3.16 µM, first compound 1 µM
[29] = second compound 3.16 µM, first compound 3.16 µM
[30] = second compound 3.16 µM, first compound 10 µM
[31] = second compound 10 µM, first compound 0.0316 µM
[32] = second compound 10 µM, first compound 0.1 µM
[33] = second compound 10 µM, first compound 0.316 µM
[34] = second compound 10 µM, first compound 1 µM
[35] = second compound 10 µM, first compound 3.16 µM
[36] = second compound 10 µM, first compound 10 µM
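Further: spheroids exposed to the agents for seven days before readout.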
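Wherever viability, T/C is given: percent viability relative to DMSO vehicle control wells = 100%.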

O=C(NO)c1cnc(N2CCN(S(=O)(=O)c3ccc4ccccc4c3)CC2)nc1 + Cc1[nH]c2ccc(F)cc2c1-c1nc2c3cccnc3c3ncccc3c2[nH]1
1300 nM: IC50 (second compound 3.16 µM)
602 nM: IC50 (second compound 0.1 µM)
1530 nM: IC50 (second compound 1 µM)
496 nM: IC50 (second compound 0.0316 µM)
inactive: viability, T/C [1] 119% | viability, T/C [2] 98% | viability, T/C [3] 76.8% | viability, T/C [4] 9.39% | viability, T/C [7] 99.2% | viability, T/C [8] 111% | viability, T/C [9] 90.2% | viability, T/C [10] 18.1% | viability, T/C [13] 91.4% | viability, T/C [14] 102% | viability, T/C [15] 88.8% | viability, T/C [16] 50.3% | viability, T/C [19] 112% | viability, T/C [20] 91.6% | viability, T/C [21] 80.9% | viability, T/C [22] 79.2% | viability, T/C [25] 99.2% | viability, T/C [26] 120% | viability, T/C [27] 108% | viability, T/C [28] 64.5% | viability, T/C [31] 87.8% | viability, T/C [32] 103% | viability, T/C [33] 99.6% | viability, T/C [34] 75.4%
988 nM: IC50 (second compound 0.316 µM)
1480 nM: IC50 (second compound 10 µM)
active: viability, T/C [5] 0.24% | viability, T/C [6] 0.27% | viability, T/C [11] 0.2% | viability, T/C [12] 0.25% | viability, T/C [17] 0.17% | viability, T/C [18] 0.21% | viability, T/C [23] 0.19% | viability, T/C [24] 0.22% | viability, T/C [29] 0.22% | viability, T/C [30] 0.21% | viability, T/C [35] 0.25% | viability, T/C [36] 0.25%

Nc1ccn(C2OC(CO)C(O)C2(F)F)c(=O)n1 (centres undefined) + Cc1[nH]c2ccc(F)cc2c1-c1nc2c3cccnc3c3ncccc3c2[nH]1
inactive: viability, T/C [1] 112% | viability, T/C [2] 78.3% | viability, T/C [3] 77.8% | viability, T/C [4] 74.3% | viability, T/C [5] 68.1% | viability, T/C [6] 54.6% | viability, T/C [7] 128% | viability, T/C [8] 94.5% | viability, T/C [9] 63.7% | viability, T/C [10] 64.5% | viability, T/C [11] 56.5% | viability, T/C [12] 59.6% | viability, T/C [13] 116% | viability, T/C [14] 99.5% | viability, T/C [15] 59.8% | viability, T/C [16] 70.5% | viability, T/C [17] 47.8% | viability, T/C [18] 66.9% | viability, T/C [19] 117% | viability, T/C [20] 112% | viability, T/C [21] 72.4% | viability, T/C [22] 49% | viability, T/C [23] 60.6% | viability, T/C [24] 74% | viability, T/C [25] 96.4% | viability, T/C [26] 97% | viability, T/C [27] 70.8% | viability, T/C [28] 58.1% | viability, T/C [29] 55.4% | viability, T/C [30] 52.2% | viability, T/C [31] 102% | viability, T/C [32] 103% | viability, T/C [33] 62.9% | viability, T/C [34] 45.6% | viability, T/C [35] 59% | viability, T/C [36] 49%
6460 nM: IC50 (second compound 0.1 µM)
> 10000 nM: IC50 (second compound 0.0316 µM) | IC50 (second compound 0.316 µM) | IC50 (second compound 1 µM) | IC50 (second compound 3.16 µM) | IC50 (second compound 10 µM)
